According to paper PMC11775380, “Discovery of Novel Nav1.7-Selective Inhibitors with the 1H-Indole-3-Propionamide Scaffold for Effective Pain Relief” (Research, 2025):
Like-named read-outs stand apart in the source and are kept apart here.

Assays:
[1] = tested on: acetic acid writhing pain model in mice; experiment: Acetic acid-induced writhing test; type: in vivo, ICR mice; conditions: 15 min before acetic acid, writhing counted 30 min
Text: Acute pain was a common type of pain with considerable value for drug development. Here, 2 acute inflammatory pain models were used to verify the acute analgesic effect of WN2-R. One such model, the acetic acid writhing pain model in mice, is a well-established acute visceral pain model. It simulates clinically relevant intestinal discomfort by stimulating the abdominal mucosa and intestine with acetic acid and has been extensively used to screen analgesic or anti-inflammatory drugs. Based on this model, we evaluated the acute analgesic effect of WN2-R using 2 drug delivery methods, i.g. and […] (n = 6). […] Furthermore, the analgesic effect of WN2-R at the same dose was similar to that of the positive control drug PF-05089771, with no significant difference between these two. […] Three male and 3 female ICR mice were used in the acetic acid-induced writhing test. Mice were preadministered with either WN2-R (5 mg/kg i.g., 1 mg/kg i.m.), PF05089771 (5 mg/kg i.g., 1 mg/kg i.m.), or saline 15 min before i.p. injection of 0.2 ml of acetic acid (0.8%, V/V). Each mouse was then placed in an individual open polyvinyl cage (30 cm × 40 cm × 30 cm). The number of writhing responses, characterized by a wave of abdominal muscle contraction followed by hind limb extension, was recorded for 30 min after acetic acid injection. These responses served as an indication of nociceptive intensity. The percentage of inhibition was calculated using the following equation: Inhibition% = (Writhing Numbervehicle – Writhing Numberdrug)/Writhing Numbervehicle × 100% [15, 47].

[2] = Pharmacokinetic study in mice (p.o. and i.v.), LC-MS/MS of plasma; type: in vivo, ICR mice; conditions: for MRT last: read-out: MRT(0-t); for MRT inf: read-out: MRT(0-∞)
Procedure: To evaluate the pharmaceutical properties of WN2-R, a preliminary pharmacokinetic study was conducted in mice to examine the in vivo pharmacokinetic profile following both oral (p.o.) and intravenous (i.v.) administrations, along with the determination of bioavailability (Table 2). Under p.o. conditions, WN2-R was rapidly absorbed, with drug detection occurring within 5 min. […] Similar to the p.o. study, the plasma concentration decreased gradually over time, approaching the quantitation limit at 6 to 8 h post-dosing (Fig. 7C).
The pharmacokinetic and bioavailability of WN2-R were examined in ICR mice following both p.o. and i.v. administrations. All animal experiment procedures were carried out in accordance with the animal experiment procedures promulgated by the State Science and Technology Commission of China and Animal Care and Use Committee of Institute of Materia Medica, Chinese Academy of Medical Sciences (registry no. 00008517). Male ICR mice (n = 12), weighing 20 ± 2 g, were obtained from Beijing Vital River Experimental Animal Co., Ltd. (Beijing, China). Before the experiment, the mice were kept under standard conditions, including a 12-h light/dark cycle, adequate ventilation, a temperature of 25 ± 2 °C, and 60% relative humidity. WN2-R, suspended in physiological saline, was orally administrated to mice at 10 mg/kg after an overnight fast. In addition, the mice were injected via caudal vein with WN2-R dissolved in 20% HP-β-CD at 1 mg/kg. Blood samples were collected from the retro-orbital venous plexus to ice-cooled EP tube containing 0.5% heparin sodium at 0.033 (i.v. only), 0.083, 0.25, 0.5, 1, 2, 4, 6, 8, 12, and 24 h after dosing. Plasma was obtained by centrifugation of blood at 8,000 rpm for 5 min. Subsequently, 20 μl of plasma sample was mixed with 140 μl of acetonitrile, vortexed for 30 s, and centrifuged twice at 14,000 rpm for 5 min. The resulting supernatant (2 μl) was analyzed by the liquid chromatography–tandem mass spectrometry (LC-MS/MS) method.
The LC-MS/MS system consisted of Thermo TSQ Access Max mass and Vanquish liquid chromatograph (Thermo Scientific, USA). Zorbax-SB C18 column (2.1 × 100 mm, 3.5 μm Agilent USA) was used in the analysis. The mobile phase consisted of water containing 0.1% formic acid (Phase A) and acetonitrile (Phase B) at a flow rate of 0.25 ml/min with an operation temperature of 35 °C. A gradient elution system was used as follows: 40% B at 0 to 1 min, 90% B at 1 to 4 min, 90% B down to 40% B at 4 to 5 min, and 40% B at 5 to 7 min. The automatic sampler was maintained at 15 °C throughout the analysis. For the mass spectrometry analysis, positive ion scanning in selected reaction monitor mode was applied to monitor the transition of m/z 458.2 to 191.9 for the determination of WN2-R. Besides, other instrument parameters, including ion spray voltage, capillary temperature, sheath gas, auxiliary gas, and collision energy, were optimized to enhance the analysis of WN2-R.
EXCEL and PRISM8.0 were used for data and chart preparation. The Winnolin professional software was employed for the pharmacokinetic parameter calculation. Bioavailability was calculated using the following formula: F (%) = (Di.v. × AUCp.o.)/(Dp.o. × AUCi.v.) × 100%.

[3] = male, ICR, mouse, plasma, iv, i.v. (1 mg/kg)
[4] = male, ICR, mouse, plasma, po, p.o. (10 mg/kg)

Cc1ccc(Cn2cc([C@H](CC(=O)NCCN(C)C)c3ccc(F)cc3)c3ccccc32)cc1 [WN2-R]
Analgesic rate (normalized number of writhing) ([1]; i.g., 5 mg/kg): 30.0%
Analgesic rate (normalized number of writhing) ([1]; i.p. (method: 1 mg/kg i.m.)): 34.1%
Time at which Cmax was detected ([2]; i.v. (1 mg/kg)): 2 min
V ([2]; i.v. (1 mg/kg)): 23,580.98 ± 2,679.45 ml/kg
Cmax ([2]; male, ICR, mouse, iv, i.v. (1 mg/kg), plasma): 269 ± 11.9 ng/mL
AUC(0-inf) [2, 3]: 271 ± 30.8 ng·h/mL
AUC(0-t) [2, 3]: 267 ± 29.7 ng·h/mL
Tmax [2, 3]: 0.033 h
clearance [2, 3]: 62 mL/min/kg
half-life [2, 3]: 4.47 ± 0.96 h
MRT last [2, 3]: 3.21 ± 0.28 h
MRT inf [2, 3]: 3.56 ± 0.44 h
bioavailability ([2]; male, ICR, mouse, plasma, oral, p.o. 10 mg/kg vs i.v. 1 mg/kg, from AUC(0-t), read-out: F (bioavailability)): 20.3%
AUC(0-inf) [2, 4]: 546 ± 98.1 ng·h/mL
AUC(0-t) [2, 4]: 542 ± 98.5 ng·h/mL
Tmax [2, 4]: 0.25 h
half-life [2, 4]: 3.46 ± 0.5 h
MRT last [2, 4]: 5.66 ± 0.33 h
MRT inf [2, 4]: 5.87 ± 0.4 h
Cmax ([2]; male, ICR, mouse, po, p.o. (10 mg/kg), plasma): 139 ± 25.4 ng/mL
